Measured values taken from patent US9028856B2, “Synergistic pesticide compositions” (priority 2008, dated 2015).

Key:
[1] = test system: Musca domestica, resistant strain Reichswald; assay: Efficacy of formulations on surfaces (glazed/unglazed tiles), house flies, continuous exposure; assay type: in vivo; settings: strain RW resistant, acetone solutions on glazed tiles, mean of three replicates
Experimental: All surfaces were provided with talcum-coated glass rings (diameter 9.5 cm, height 5.5 cm) one day later.
The test insects were anesthetized with CO2, 20 individuals were placed onto the treated surfaces and the glass ring was covered with wire gauze ring. […]
Each test consisted of at least one replicate and any additional replicates are noted.
Test Insects: House flies (Musca domestica) of both sexes, susceptible strain WHO(N) and resistant strain Reichswald
Evaluation: Mortality was evaluated cumulatively at different times. […]
Test Insects: Culex quinquefasciatus (adults) (3 minutes exposure time according to USDA Petri Dish Method), Musca domestica (adults), susceptible and resistant strain, Blattella germanica (males), Cimex lectularius (adults) (all: continuous exposure time)
Application: The EC formulation (diluted with water 1:9) were applied as 0.85 ml solutions onto glazed tiles (15 cm×15 cm)

[2] = test system: Musca domestica, resistant strain Reichswald; assay: as above; assay type: in vivo; settings: strain RW resistant, acetone solutions on glazed tiles, mean of three replicates; remark: listed apart in the source
[3] = test system: Red Imported Fire ant (RIFA), Solenopsis invicta; assay: Knockdown/mortality of ant workers under continuous exposure on treated glazed tile; assay type: in vivo; settings: Table 44, aqueous permethrin/adjuvant, glazed tile
Source text: Treatments were allowed to dry overnight. […] Treatments were replicated minimum three times.
(§1) Treatments were allowed to dry overnight. […] Treatments were replicated a minimum of three times.

[4] = test system: Argentine ant, Linepithema humile; assay: as above; settings: Table 41, aqueous permethrin/adjuvant, glazed tile
In short: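 0.5% AI imidacloprid in acetone, alone or with 0.1, 1.0 or 5.0% additive (benzenepropanoic acid, oleic acid, methyl oleate, methyl linoleate, methyl palmitate or BHA), 1 ml dried overnight on glazed tile (~161 cm^2). Ten workers confined under continuous exposure, water from 3 h; knockdown/mortality scored at intervals and 24 h; ≥3 replicates.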

[5] = test system: Aedes aegypti mosquito; assay: USDA Petri Dish Method, 3 min exposure to dipped fiberglass window screen; assay type: in vivo; settings: dipped screen, 3 min exposure
Experimental: MATERIALS AND METHODS: Aqueous solutions of 1% deltamethrin with and without an adjuvant composition, which is sold under the tradename Suspend® SC. […] Pre-cut fiberglass screen (5″×5″, or 161.3 cm^2) were dipped in each treatment solution and excessive solution was allowed to drain completely (see FIG. 23 a). Weight of the solution coated on the screen was then determined. The treated screen was then allowed to air-dry overnight. USDA Petri Dish Method was used as initial screening protocol (see FIG. 23 b). Twenty, 4-6 day old female Aedes aegypti were exposed to treated window screen for 3 minutes and then moved onto a clean untreated white paper index card. Treatments were replicated a minimum of three times. Mosquito knockdown was evaluated at 3 minute intervals for the first 15 minutes and then at 5 minute intervals for the remainder of an hour. A small cotton ball with sucrose solution was added on the screen top of the Petri dish as a drinking source. Mortality was evaluated at 24 hours after exposure.
MATERIALS AND METHODS: Several rates of permethrin without adjuvant were prepared using product sold under the tradename Permanone® 40 to determine an effective rate against Aedes aegypti mosquitoes. After determining an effective rate range, aqueous solutions of permethrin at 1.25, 1.0 and 0.05% AI were prepared with and without adjuvant. […] Pre-cut fiberglass screens (5″×5″ or 161.3 cm^2) were dipped in each treatment solution allowing excessive solution to drain completely. Weight of the solution coated on the screen was then determined. The treated screen was then allowed to air-dry overnight. USDA Petri Dish Method was used as initial screening protocol (see photo, right). Twenty, 4-6 day old female Aedes aegypti were exposed to treated window screen for 3 minutes and then moved to a clean untreated white paper index card. Treatments were replicated a minimum of three times. Mosquito knockdown was evaluated at 3 minute intervals for the first 15 minutes and then at 5 minute intervals for the remainder of an hour. A small cotton ball with sucrose solution was added on the screen top of the petri-dish as a drinking source. Mortality was evaluated at 24 hours after exposure.

[6] = test system: Odorous House ant, Tapinoma sessile; assay: Knockdown/mortality of ant workers under continuous exposure on treated glazed tile; assay type: in vivo; settings: Table 43, aqueous permethrin/adjuvant, glazed tile
In short: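 Treatments applied to about 161 cm2 glazed tile and dried overnight, with at least three replicates.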

[7] = test system: susceptible/normal German cockroach (Monheim strain), Blattella germanica; assay: Knockdown/mortality of male cockroaches under continuous exposure on treated glazed tile; assay type: in vivo; settings: Table 45, aqueous permethrin/adjuvant, glazed tile, Monheim strain
In short: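 Male cockroaches continuously exposed on treated glazed tile, dried overnight before exposure; at least three replicates. Knockdown/mortality scored at intervals from 5 or 10 min, over runs lasting 20 min to 24 h depending on test.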

[8] = test system: bait averse/resistant German cockroach (IHOP strain), Blattella germanica; assay: as above; assay type: in vivo; settings: Table 42, aqueous permethrin/adjuvant, IHOP strain
Experimental: Treatments were allowed to dry overnight. […] Treatments were replicated a minimum of three times. Evaluations for cockroach knockdown/mortality were made at various intervals for 1 hour and at 24 hours after exposure.
Treatments were allowed to dry overnight. […] Evaluations for cockroach knockdown/mortality were made at various intervals and at 60 minutes after exposure.
as §1

[9] = Table 39, permethrin without adjuvant (Permanone 40)
[10] = Table 40, aqueous permethrin/adjuvant

SMILES: CC1(C)[C@H](C(=O)O[C@H](C#N)c2cccc(Oc3ccccc3)c2)[C@@H]1C=C(Br)Br [0.020% DTM]
- % Mortality after ([1]; 15′): 0%
- % Mortality after ([1]; 30′): 0%
- % Mortality after ([1]; 1 h): 0%
- % Mortality after ([1]; 3 h): 0%
- % Mortality after ([2]; 2 h): 0%
- % Mortality after ([2]; 24 h): 7%

SMILES: CC1(C)C(C=C(Cl)Cl)C1C(=O)OCc1cccc(Oc2ccccc2)c1 (centres unmarked) [Permethrin (0.5%)]
- Average % Mortality after 5 min ([3]; 5 min): 43%
- Average % Mortality after 15 min ([3]; 15 min): 100%
- Average % Mortality after 30 min ([3]; 30 min): 100%
- Average % Mortality after 60 min ([3]; 60 min): 100%
- Average % Mortality after 5 min ([4]; 5 min): 58%
- Average % Mortality after 10 min ([4]; 10 min): 100%
- Average % Mortality after 15 min ([4]; 15 min): 100%
- Average % Mortality after 20 min ([4]; 20 min): 100%
- Average % Knockdown & Mortality after 3 min [5, 9]: 0%
- Average % Knockdown & Mortality after 3 min [5, 10]: 0%
- Average % Knockdown & Mortality after 9 min [5, 9]: 0%
- Average % Knockdown & Mortality after 9 min [5, 10]: 1%
- Average % Knockdown & Mortality after 15 min [5, 9]: 0%
- Average % Knockdown & Mortality after 15 min [5, 10]: 1%
- Average % Knockdown & Mortality after 30 min [5, 9]: 0%
- Average % Knockdown & Mortality after 30 min [5, 10]: 0%
- Average % Knockdown & Mortality after 60 min [5, 9]: 0%
- Average % Knockdown & Mortality after 60 min [5, 10]: 0%
- Average % Knockdown & Mortality after 24 hr [5, 9]: 9%
- Average % Knockdown & Mortality after 24 hr [5, 10]: 6%
- Average % Mortality after 10 min ([6]; 10 min): 13%
- Average % Mortality after 20 min ([6]; 20 min): 50%
- Average % Mortality after 30 min ([6]; 30 min): 93%
- Average % Mortality after 60 min ([6]; 60 min): 100%
- Average % Mortality after 10 min ([7]; 10 min): 100%
- Average % Mortality after 20 min ([7]; 20 min): 100%
- Average % Mortality after 30 min ([7]; 30 min): 100%
- Average % Mortality after 4 hr ([7]; 4 hr): 100%
- Average % Mortality after 10 min ([8]; 10 min): 40%
- Average % Mortality after 20 min ([8]; 20 min): 87%
- Average % Mortality after 40 min ([8]; 40 min): 93%
- Average % Mortality after 60 min ([8]; 60 min): 100%
